# Assays:
# [1] = target: T1, GST-LXRβ ligand-binding domain (Homo sapiens, UniProt P55055, DUP175-175); test: TR-FRETβ activity assay (LXRβ-LBD / NCoA3 coactivator peptide, prestimulated with 24(S)-25-epoxycholesterol); assay type: biochemical; design: key to behavior in FRET assay: ag=agonist; ia=inverse agonist; conditions: for EC50: 1 μM 24(S)-25-epoxycholesterol as prestimulating agonist, read-out: FRETβ activity range (EC50); for behavior in FRET assay: agonist or inverse agonist
# T1 construct: amino acids 156-461; NP009052; made in house; host or cells: E. coli
# T1 sequence (P55055 with tags, fused parts or gaps DUP175-175): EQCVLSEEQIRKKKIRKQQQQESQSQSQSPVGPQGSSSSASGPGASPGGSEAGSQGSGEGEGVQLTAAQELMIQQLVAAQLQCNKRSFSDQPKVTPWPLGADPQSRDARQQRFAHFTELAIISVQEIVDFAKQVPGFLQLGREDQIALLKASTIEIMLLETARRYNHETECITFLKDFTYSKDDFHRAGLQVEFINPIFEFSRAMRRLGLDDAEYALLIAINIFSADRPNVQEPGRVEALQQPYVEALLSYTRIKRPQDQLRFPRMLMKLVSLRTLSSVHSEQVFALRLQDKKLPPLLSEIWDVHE
# In short: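 E. coli-expressed GST-LXRβ LBD (aa 156-461) at 76 nM with biotinylated NCoA3 coactivator peptide (400 nM), in 240 mM KCl, BSA and Triton-X-100. Anti-GST-Tb cryptate/streptavidin-XL665 TR-FRET after 1 h equilibration at 4 °C, excitation 340 nm, emission 615 and 665 nm. Run in triplicate.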
# [2] = target: T2, LXRα ligand-binding domain (LBD) (Homo sapiens, UniProt Q13133); test: LXR Gal4 reporter transient transfection assay (M2H), Gal4α LBD; assay type: cell-based; conditions: HEK293 cells; for EC50: read-out: M2H Gal4α LBD activity range (EC50)
# T2 construct: expressed in transfected cells; host or cells: HEK293
# T2 sequence (Q13133 155-447): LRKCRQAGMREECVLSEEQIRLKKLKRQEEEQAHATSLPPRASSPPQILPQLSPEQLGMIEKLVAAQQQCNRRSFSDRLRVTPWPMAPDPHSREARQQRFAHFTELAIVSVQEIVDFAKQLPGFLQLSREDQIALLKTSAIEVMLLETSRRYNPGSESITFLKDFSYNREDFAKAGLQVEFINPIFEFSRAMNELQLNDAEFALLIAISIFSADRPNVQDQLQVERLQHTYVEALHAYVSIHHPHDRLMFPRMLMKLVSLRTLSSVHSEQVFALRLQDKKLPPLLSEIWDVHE
# Description: (§1) The tested compounds were usually dissolved, tested and stored as 20 mM stock solutions in DMSO. Since sulfonyl acetic acid derivatives tend to decarboxylate under these conditions, these stock solutions were prepared, tested and stored as 20 mM DMSO stock solutions containing 100 mM trifluoroacetic acid (5 equivalents). Sulfonyl acetic acid derivatives are shelf stable as solid at rt for long time as reported by Griesbrecht et al. (Synlett 2010:374) or Faucher et al. (J. Med. Chem. 2004; 47:18).
# (§2) LXR Gal4 Reporter Transient Transfection Assays
# (§3) LXRα and LXRβ activity status was determined via detection of interaction with coactivator and corepressor proteins in mammalian two-hybrid experiments (M2H). For this, via transient transfection the full length (FL) proteins of LXRα (amino acids 1-447; NP005684; SEQ ID NO:7) or LXRβ-(amino acids 1-461; NP009052; SEQ ID NO:8) or the ligand-binding domains (LBD) of LXRα (amino acids 155-447 SEQ ID NO:3) or LXRβ (amino acids 156-461; SEQ ID NO:4) were expressed from pCMV-AD (Stratagene) as fusions to the transcriptional activation domain of NFkB. As cofactors, domains of either the steroid receptor coactivator 1 (SRC1; amino acids 552-887; SEQ ID NO:5) or of the corepressor NCoR (amino acids 1903-2312 SEQ ID NO:6) were expressed as fusions to the DNA binding domain of the yeast transcription factor GAL4 (from pCMV-BD; Stratagene). Interaction was monitored via activation of a coexpressed Firefly Luciferase Reporter gene under control of a promoter containing repetitive GAL4 response elements (vector pFRLuc; Stratagene). Transfection efficiency was controlled via cotransfection of constitutively active pRL-CMV Renilla reniformis luciferase reporter (Promega). HEK293 cells were grown in minimum essential medium (MEM) with 2 mM L-glutamine and Earle's balanced salt solution supplemented with 8.3% fetal bovine serum, 0.1 mM non-essential amino acids, 1 mM sodium pyruvate, at 37° C. in 5% CO2. 3.5×10^4 cells/well were plated in 96-well cell culture plates in growth medium supplemented with 8.3% fetal bovine serum for 16-20 h to ˜90% confluency. For transfection, medium was taken off and LXR and cofactor expressing plasmids as well as the reporter plasmids are added in 30 μL OPTIMEM/well including polyethylene-imine (PEI) as vehicle. Typical amounts of plasmids transfected/well: pCMV-AD-LXR (5 ng), pCMV-BD-cofactor (5 ng), pFR-Luc (100 ng), pRL-CMV (0.5 ng). Compound stocks were prepared in DMSO, prediluted in MEM to a total volume of 120 μL, and added 4 h after addition of the transfection mixture (final vehicle concentration not exceeding 0.2%). Cells were incubated for additional 16 h, lysed for 10 min in 1× Passive Lysis Buffer (Promega) and Firefly and Renilla luciferase activities were measured sequentially in the same cell extract using buffers containing D-luciferine and coelenterazine, respectively. Measurements of luminescence were done in a BMG-Iuminometer.
# [3] = target: T3, LXRβ ligand-binding domain (LBD) (Homo sapiens, UniProt P55055, DUP175-175); test: LXR Gal4 reporter transient transfection assay (M2H), Gal4β LBD; assay type: cell-based; conditions: HEK293 cells; for EC50: read-out: M2H Gal4β LBD activity range (EC50)
# T3 construct: LXRβ (amino acids 156-461); expressed in transfected cells; host or cells: HEK293
# T3 sequence (P55055 with tags, fused parts or gaps DUP175-175): T1 sequence (P55055 with tags, fused parts or gaps DUP175-175)
# Description: as §1, §2, §3
EC50 [1] [nM],behavior in FRET assay [1],EC50 [2] [nM],EC50 [3] [nM],M2H Gal4α LBD activity range (EC50) [2],M2H Gal4β LBD activity range (EC50) [3],SMILES
< 100,ia,1000 to 10000,100 to 1000,–,–,"COC(=O)CS(=O)(=O)c1cccc(-c2ccc(CN(Cc3ccc(C(F)(F)F)o3)S(=O)(=O)c3c(C)cc(C)cc3C)cc2)c1 [Example 4, Methyl 2-((4′-(((2,4,6-trimethyl-N-((5-(trifluoromethyl)furan-2-yl)methyl)phenyl)sulfon-amido)methyl)-[1,1′-biphenyl]-3-yl)sulfonyl)acetate]"
> 10000,ia,1000 to 10000,100 to 1000,–,–,Cc1cc(C)c(S(=O)(=O)N(Cc2ccc(N3CCCC(CC(=O)O)C3=O)cc2)Cc2ccc(C(F)(F)F)o2)c(C)c1 (stereo not drawn) [Example 16/1]
100 to 1000,ia,100 to 1000,100 to 1000,–,–,Cc1cc(C)c(S(=O)(=O)N(Cc2ccc(-c3cccc(C(F)(F)C(=O)O)c3)cc2)Cc2ccc(C(F)(F)F)o2)c(C)c1 [5/4]
100 to 1000,ia,< 100,< 100,–,–,Cc1cc(C)c(S(=O)(=O)N(Cc2ccc(-c3cccc(C(C)C(=O)O)c3)cc2)Cc2ccc(C(F)(F)F)o2)c(C)c1 (stereo not drawn) [7/4]
> 10000,ia,100 to 1000,< 100,–,–,CCOC(=O)Cc1cccc(-c2ccc(CN(Cc3ccc(C(F)(F)F)o3)S(=O)(=O)c3c(C)cc(C)cc3C)cc2)c1 [Example 1]
1000 to 10000,ia,100 to 1000,< 100,–,–,COc1ccc(-c2ccc(CN(Cc3ccc(C(F)(F)F)o3)S(=O)(=O)c3c(C)cc(C)cc3C)cc2)cc1C(C)(C)C(=O)O [7/9]
1000 to 10000,ia,100 to 1000,100 to 1000,–,–,Cc1cc(C)c(S(=O)(=O)N(Cc2ccc(-c3ccc(OCC(=O)O)cc3)cc2)Cc2ccc(C(F)(F)F)o2)c(C)c1 [C7/11]
1000 to 10000,ia,100 to 1000,100 to 1000,–,–,Cc1cc(C)c(S(=O)(=O)N(Cc2ccc(-c3cccc(OCC(=O)O)c3)cc2)Cc2ccc(C(F)(F)F)o2)c(C)c1 [5/3]
1000 to 10000,ia,100 to 1000,100 to 1000,–,–,Cc1cc(C)c(S(=O)(=O)N(Cc2ccc(C3=CS(=O)(=O)C(CC(=O)O)=C3)cc2)Cc2ccc(C(F)(F)F)o2)c(C)c1 [25/3]
1000 to 10000,ia,100 to 1000,100 to 1000,–,–,Cc1cc(C)c(S(=O)(=O)N(Cc2ccc(-c3cccc(CC(=O)O)c3)cc2)Cc2cccc(Br)c2)c(C)c1 [2/3]
1000 to 10000,ia,1000 to 10000,100 to 1000,–,–,COc1ccc(C(C)(C)C(=O)O)cc1-c1ccc(CN(Cc2ccc(C(F)(F)F)o2)S(=O)(=O)c2c(C)cc(C)cc2C)cc1 [7/10]
100 to 1000,ia,100 to 1000,< 100,–,–,"Cc1cc(C)c(S(=O)(=O)N(Cc2ccc(C(F)(F)F)o2)CC2CC=C(c3cccc(C(C)(C)C(=O)O)c3)CC2)c(C)c1 (stereo not drawn) [Example 19, 2-Methyl-2-(4′-(((2,4,6-trimethyl-N-((5-(trifluoromethyl)furan-2-yl)methyl)phenyl)sulfon-amido)methyl)-2′,3′,4′,5′-tetrahydro-[1,1′-biphenyl]-3-yl)propanoic acid]"
1000 to 10000,ia,1000 to 10000,1000 to 10000,–,–,Cc1cc(C)c(S(=O)(=O)N(Cc2ccc(-c3cccc([S+]([O-])CC(=O)O)c3)cc2)Cc2ccc(C(F)(F)F)o2)c(C)c1 (stereo not drawn) [11/17]
100 to 1000,ia,100 to 1000,< 100,–,–,"Cc1cc(C)c(S(=O)(=O)N(Cc2ccc(-c3cccc(CCC(=O)O)c3)cc2)Cc2ccc(C(F)(F)F)o2)c(C)c1 [Example 25, 3-(4′-(((2,4,6-Trimethyl-N-((5-(trifluoromethyl)furan-2-yl)methyl)phenyl)sulfonamido)methyl)-[1,1′-biphenyl]-3-yl)propanoic acid]"
1000 to 10000,ia,–,100 to 1000,inactive,–,Cc1cc(C)c(S(=O)(=O)N(Cc2ccc(C(F)(F)F)o2)CC2CCC(c3cccc(C(C)(C)C(=O)O)c3)CC2)c(C)c1 (stereo not drawn) [Example 19/1]
1000 to 10000,ia,–,–,inactive,inactive,Cc1cc(C)c(S(=O)(=O)N(Cc2ccc(C(F)(F)F)o2)C(C)c2ccc(-c3cccc(CC(=O)O)c3)cc2)c(C)c1 (stereo not drawn) [Example 2/1]
> 10000,ia,100 to 1000,< 100,–,–,CC(=O)NS(=O)(=O)c1cccc(-c2ccc(CN(Cc3ccc(C(F)(F)F)o3)S(=O)(=O)c3c(C)cc(C)cc3C)cc2)c1 [Example 3/1]
1000 to 10000,ia,100 to 1000,100 to 1000,–,–,Cc1cc(C)c(S(=O)(=O)N(Cc2ccc(-c3cccc(S(=O)(=O)CCCC(=O)O)c3)cc2)Cc2ccc(C(F)(F)F)o2)c(C)c1 [7/2]
> 10000,ia,–,1000 to 10000,inactive,–,"Cc1cc(C)c(S(=O)(=O)N(Cc2ccc(N3CCCN(CC(=O)O)C3=O)cc2)Cc2ccc(C(F)(F)F)o2)c(C)c1 [Example 16, 2-(2-Oxo-3-(4-(((2,4,6-trimethyl-N-((5-(trifluoromethyl)furan-2-yl)methyl)phenyl)sulfon-amido)methyl)phenyl)tetrahydropyrimidin-1(2H)-yl)acetic acid]"
1000 to 10000,ia,1000 to 10000,1000 to 10000,–,–,Cc1cc(C)c(S(=O)(=O)N(Cc2ccc(-c3cccc(S(=O)(=O)NCC(=O)O)c3)cc2)Cc2ccc(C(F)(F)F)o2)c(C)c1 [Example 25/1]

SMILES,EC50 [1] [nM],behavior in FRET assay [1],EC50 [2] [nM],EC50 [3] [nM],M2H Gal4α LBD activity range (EC50) [2],M2H Gal4β LBD activity range (EC50) [3]
"COc1cc(-c2ccc(CO)c(C(C)(C)C(=O)[O-])c2)ccc1CN(Cc1ccc(C(F)(F)F)o1)S(=O)(=O)c1c(C)ccc2ccccc12.[Na+] [Example 23, Sodium 2-(4-(hydroxymethyl)-3′-methoxy-4′-(((2-methyl-N-((5-(trifluoromethyl)furan-2-yl)methyl)naphthalene)-1-sulfonamido)methyl)-[1,1′-biphenyl]-3-yl)-2-methylpropanoate]",100 to 1000,ia,< 100,< 100,–,–
